Data as given in patent EP0603240B1, “SAFENING HERBICIDAL PYRAZOLYLSULFONYLUREAS” (priority 1991, dated 1993).

Tests used:
Assay type in all cases: in vivo
[1] = system: velvetleaf (Abutilon theophrasti); experiment: Example 18, Procedure II: Herbicide No. 1 + ERADICANE (EPTC + R-25788) with auxiliary antidotes
Description: (§1) Containers were filled and compacted with a fumigated silt loam top soil to a depth of about 1.3 cm from the top of the container. A first container was designated as an untreated control, a second container was designated as a herbicide control, and a third container was designated as a herbicide + antidote test container. Each of the containers was seeded with a crop species. A measured amount of herbicide dispersed or dissolved in acetone was applied to a measured quantity of soil. To this same quantity of soil treated with herbicide, there was added a measured amount of antidote dispersed or dissolved in acetone. The quantity of soil treated with the herbicide and antidote was thoroughly mixed to incorporate the herbicide and antidote in the soil uniformly. The seed bed in the third container of soil was covered with the soil treated with the herbicide and antidote and the container was leveled. For each test series, the seed beds of the first and second containers were likewise covered by soil layers. the cover layer of the first container was not treated with herbicide or antidote.
(§2) The containers were then placed on a bench in a greenhouse and sub-irrigated as required for the duration of the test. […] Plant response is measured in terms of percent injury. Antidote efficacy is indicated as the difference in plant injury by the herbicide(s) without the antidote and with the antidote.
(§3) This procedure is the same as Procedure I, but modified in the manner that after incorporation of the chemicals (herbicide and antidote) the containers with the covered seedbed were treated with an initial overhead irrigation equivalent to 0.6 cm rainfall, then subsequently sub-irrigated as required on greenhouse benches.
(§4) In the series of greenhouse tests described below, for routine screening purposes the herbicide/antidote compositions were tested in crop/weed combinations involving corn as the crop and either or both of the weeds barnyardgrass (Echinochloa crusgalli), a monocotyledonous weed, and velvetleaf (Abutilon theophrasti), a dicotyledonous weed. In the tables below, these weeds are indicated by the symbols "BYG" and "VL", respectively.
(§5) In the test reported in this example, the herbicidal composition was similar to that used in Example 16 in that Herbicide No. 1 was combined with EPTC (Herbicide No. 4) as a co-herbicide and the antidotes included Nos. 1, 2, 7, 13 and 15. However, in this test the EPTC was introduced as a formulation of ERADICANE (EPTC + the antidote R-25788, i.e., Antidote No. 1) at an application rate of 8.96 kg/ha. Thus, in this test two antidotes were present, viz. R-25788 and one of the auxilliary antidotes, No. 2, 13 and 15.
(§6) Test procedures were those of Procedure II above.

[2] = system: barnyardgrass (Echinochloa crusgalli); experiment: as above
Description: as §1, §2, §3, §4, §5, §6

[3] = system: corn; experiment: Example 9, Procedure II: Herbicide No. 1 + pretilachlor (No. 13) with antidotes
Description: as §1, §2, §3
In this example the safening effect on a composition comprising Herbicide No. 1 and another leading rice herbicide, i.e., Herbicide No. 13, was investigated using the same antidotes and test procedure described in the preceding example. Herbicide No. 13 is pretilachlor, active ingredient used in the commercial rice herbicides RIFIT®, SOFIT® and SOFIT® SUPER.

[4] = system: corn; experiment: Example 21, Procedure II: Herbicide No. 1 + SUTAN PLUS (butylate + antidote) with antidotes
Description: as §1, §2, §3
(§7) In this example, tests were conducted as in the preceding Examples 18-20, except here the co-herbicidal component was SUTAN® PLUS, a commercial product comprising as the active herbicidal ingredient the compound butylate (Herbicide No. 10) and an antidote […] (Antidote No. 1). Again, the antidotal compounds herein were Nos. 1, 2, 7, 13 and 15. Procedure II was used.

[5] = system: velvetleaf (Abutilon theophrasti); experiment: Example 19, Procedure II: Herbicide No. 1 + ERADICANE EXTRA with added antidotes
Description: as §1, §2, §3, §4, §5
(§8) The test reported in this example was performed in the same manner and with the same antidotes used in Example 18, the only difference being the substitution of the commercial herbicidal product ERADICANE® EXTRA for ERADICANE®. ERADICANE EXTRA is a formulation containing both an antidote, i.e., R-29148 (Antidote No. 5 herein), and an extender, dietholate.

[6] = system: barnyardgrass (Echinochloa crusgalli); experiment: as above
Description: as §1, §2, §3, §4, §5, §8

[7] = system: corn; experiment: Example 22: retest of Example 21 at reduced greenhouse temperatures; conditions: Table 22
Description: as §1, §2, §3, §7
The experiments in this example were designed as a retest of those described in Example 21 in view of the uncharacteristically poor corn safety and weed control, believed to have resulted from unseasonably high temperatures in the greenhouse. Accordingly, temperatures were reduced for these tests.

[8] = system: velvetleaf (Abutilon theophrasti); experiment: Example 8, Procedure II: Herbicide No. 1 + butachlor (No. 9) with antidotes
Description: as §1, §2, §3, §4
(§9) In this test, the efficacy of the same five antidotes used in Examples 6 and 7 was investigated in compositions comprising Herbicide No. 1 and as a co-herbicide, butachlor (Herbicide No. 9), active ingredient in MACHETE® herbicide, a leading commercial rice herbicide. The test procedure used in this example was the same as that in Examples 6 and 7.

[9] = system: barnyardgrass (Echinochloa crusgalli); experiment: as above
Description: as §1, §2, §3, §4, §9

[10] = Herbicide No.1 0.56 kg/ha + ERADICANE 8.96 kg/ha, antidote 2.24 kg/ha
[11] = Herbicide No.1 0.56 kg/ha + ERADICANE 8.96 kg/ha, antidote 8.96 kg/ha
[12] = Herbicide No.1 1.12 kg/ha + ERADICANE 8.96 kg/ha, antidote 2.24 kg/ha
[13] = Herbicide No.1 1.12 kg/ha + ERADICANE 8.96 kg/ha, antidote 8.96 kg/ha
[14] = Herbicide No.1 0.14 kg/ha + Herbicide No.13 2.24 kg/ha, antidote rate 2.24 kg/ha
[15] = Herbicide No.1 0.14 kg/ha + Herbicide No.13 2.24 kg/ha, antidote rate 8.96 kg/ha
[16] = Herbicide No.1 0.56 kg/ha + Herbicide No.13 2.24 kg/ha, antidote rate 2.24 kg/ha
[17] = Herbicide No.1 0.56 kg/ha + Herbicide No.13 2.24 kg/ha, antidote rate 8.96 kg/ha
[18] = Herbicide No.1 0.56 kg/ha + SUTAN + 8.96 kg/ha, antidote 2.24 kg/ha
[19] = Herbicide No.1 0.56 kg/ha + SUTAN + 8.96 kg/ha, antidote 8.96 kg/ha
[20] = Herbicide No.1 1.12 kg/ha + SUTAN + 8.96 kg/ha, antidote 2.24 kg/ha
[21] = Herbicide No.1 1.12 kg/ha + SUTAN + 8.96 kg/ha, antidote 8.96 kg/ha
[22] = Herbicide No.1 0.56 kg/ha + ERADICANE EXTRA 8.96 kg/ha, antidote 2.24 kg/ha
[23] = Herbicide No.1 0.56 kg/ha + ERADICANE EXTRA 8.96 kg/ha, antidote 8.96 kg/ha
[24] = Herbicide No.1 1.12 kg/ha + ERADICANE EXTRA 8.96 kg/ha, antidote 2.24 kg/ha
[25] = Herbicide No.1 1.12 kg/ha + ERADICANE EXTRA 8.96 kg/ha, antidote 8.96 kg/ha
[26] = Herbicide No.1 0.56 Kg/ha + SUTAN + 8.96 Kg/ha + antidote 2.24 Kg/ha
[27] = Herbicide No.1 0.56 Kg/ha + SUTAN + 8.96 Kg/ha + antidote 8.96 Kg/ha
[28] = Herbicide No.1 1.12 Kg/ha + SUTAN + 8.96 Kg/ha + antidote 2.24 Kg/ha
[29] = Herbicide No.1 1.12 Kg/ha + SUTAN + 8.96 Kg/ha + antidote 8.96 Kg/ha
[30] = Herbicide No.1 0.14 + No.9 2.24 kg/ha + antidote 2.24 kg/ha
[31] = Herbicide No.1 0.14 + No.9 2.24 kg/ha + antidote 8.96 kg/ha
[32] = Herbicide No.1 0.56 + No.9 2.24 kg/ha + antidote 2.24 kg/ha
[33] = Herbicide No.1 0.56 + No.9 2.24 kg/ha + antidote 8.96 kg/ha

| Compound | % Injury VL [1, 10] [%] | % Injury VL [1, 11] [%] | % Injury VL [1, 12] [%] | % Injury VL [1, 13] [%] | % Injury BYG [2, 10] [%] | % Injury BYG [2, 11] [%] | % Injury BYG [2, 12] [%] | % Injury BYG [2, 13] [%] | % Injury Corn [3, 14] [%] | % Injury Corn [3, 15] [%] | % Injury Corn [3, 16] [%] | % Injury Corn [3, 17] [%] | % Injury Corn [4, 18] [%] | % Injury Corn [4, 19] [%] | % Injury Corn [4, 20] [%] | % Injury Corn [4, 21] [%] | % Injury VL [5, 22] [%] | % Injury VL [5, 23] [%] | % Injury VL [5, 24] [%] | % Injury VL [5, 25] [%] | also measured |
| --- | --- | --- | --- | --- | --- | --- | --- | --- | --- | --- | --- | --- | --- | --- | --- | --- | --- | --- | --- | --- | --- |
| C=CCN(CC=C)C(=O)C(Cl)Cl [compound 1] | 85 | 85 | 75 | 75 | 90 | 90 | 90 | 85 | 0 | 0 | 5 | 10 | 15 | 15 | 30 | 20 | 70 | 75 | 70 | 85 | % Injury BYG [6, 22]: 90%; % Injury BYG [6, 23]: 90%; % Injury BYG [6, 24]: 90%; % Injury BYG [6, 25]: 95%; % Injury Corn [7, 26]: 45%; % Injury Corn [7, 27]: 60%; % Injury Corn [7, 28]: 50%; % Injury Corn [7, 29]: 55%; % Injury VL [8, 30]: 70%; % Injury VL [8, 31]: 70%; % Injury VL [8, 32]: 85%; % Injury VL [8, 33]: 80%; % Injury BYG [9, 30]: 99%; % Injury BYG [9, 31]: 99%; % Injury BYG [9, 32]: 98%; % Injury BYG [9, 33]: 99% |
| O=C(C(Cl)Cl)N1CCOC12CCCCC2 [compound 7] | 75 | 80 | 70 | 75 | 90 | 85 | 85 | 85 | 10 | 0 | 30 | 25 | 5 | 20 | 15 | 15 | 75 | 80 | 75 | 85 | % Injury BYG [6, 22]: 85%; % Injury BYG [6, 23]: 85%; % Injury BYG [6, 24]: 90%; % Injury BYG [6, 25]: 85%; % Injury Corn [7, 26]: 45%; % Injury Corn [7, 27]: 50%; % Injury Corn [7, 28]: 65%; % Injury Corn [7, 29]: 50%; % Injury VL [8, 30]: 70%; % Injury VL [8, 31]: 65%; % Injury VL [8, 32]: 75%; % Injury VL [8, 33]: 65%; % Injury BYG [9, 30]: 97%; % Injury BYG [9, 31]: 99%; % Injury BYG [9, 32]: 99%; % Injury BYG [9, 33]: 99% |
| CC1(C(Cl)Cl)OCCO1 [compound 13] | 80 | 80 | 75 | 75 | 85 | 85 | 85 | 90 | 10 | 0 | 25 | 20 | 0 | 10 | 5 | 10 | 65 | 70 | 80 | 85 | % Injury BYG [6, 22]: 90%; % Injury BYG [6, 23]: 90%; % Injury BYG [6, 24]: 90%; % Injury BYG [6, 25]: 95%; % Injury Corn [7, 26]: 70%; % Injury Corn [7, 27]: 60%; % Injury Corn [7, 28]: 75%; % Injury Corn [7, 29]: 60%; % Injury VL [8, 30]: 75%; % Injury VL [8, 31]: 80%; % Injury VL [8, 32]: 85%; % Injury VL [8, 33]: 85%; % Injury BYG [9, 30]: 99%; % Injury BYG [9, 31]: 99%; % Injury BYG [9, 32]: 99%; % Injury BYG [9, 33]: 100% |
